Source: patent publication US8067537B2, “Composition and method for treatment of stomatitis” (Kyowa Hakko Bio Co., Ltd., priority 2004, dated 2011)

Test system: chronic stomatitis
Experiment: Effectiveness of glutathione in treatment of cat stomatitis
Format: in vivo
[1] = one cat with AIDS and serious chronic stomatitis, 30 mg/kg per day mixed in the feed for two weeks

Compound: interferon [reference compound]
- improvement of chronic stomatitis (same cat, nearly 10 years of treatment before the glutathione): no improvement

Compound: N[C@@H](CCC(=O)N[C@@H](CS)C(=O)NCC(=O)O)C(=O)O [reduced glutathione, gamma-L-Glu-L-Cys-Gly]
- appetite [1]: improved
- fauces erosion and gum inflammation [1]: dramatic improvements
